Assay results: US7713914B2 (priority 2005, dated 2010)

Legend:
[1] = tested on: Bacillus anthracis endospores
[2] = Solubility of DPA in water; assay type: physicochemical
[3] = tested on: Bacillus cereus spores; assay type: cell-based

## CC(=O)O [glacial acetic acid, acetic acid]
[1]; Example 1, hypothetical 1000 spores, 50 microL, 1 minute
  DPA concentration calculated from 1008 cm-1 peak: 20±10 ng per 1 mL
[1]; acid dispensed onto surface
  Time in which most, if not all, of the CaDPA is released: 1 to 5 min

## O=C(O)c1cccc(C(=O)O)n1 [DPA, dipicolinic acid]
[2]
  Solubility in water: only slightly soluble

## O=C(O)C(F)(F)F [trifluoroacetic acid]
[3]
  SERS of DPA (CaDPA release at room temperature): observed

## CCCCCCCCCCCCN [DDA, dodecylamine, reference compound]
[3]
  Exposure required before a reasonable DPA SERS signal was observed: 1 h

## CC(O)C(=O)O (stereo not shown) [lactic acid]
[3]
  SERS of DPA (CaDPA release at room temperature): observed

## O=CO [formic acid]
[3]
  SERS of DPA (CaDPA release at room temperature): observed
